US20230415137A1, “PHOTOCATALYST COMPOSITION, PHOTOCATALYST COMPOSITION SOLUTION, PHOTOCATALYST MEMBER, METHOD FOR USING PHOTOCATALYST COMPOSITION, AND SPACE DISINFECTION METHOD” (priority 2020, published 2023)

Tested on: indigenous bacteria collected from the ultrasonic humidifier
Experiment: Bactericidal evaluation (photocatalyst composition solutions, first example group)
Assay type: cell-based
Details: riboflavin sodium phosphate set to 10,000 ppm, no sacrificial agent
Method: The indigenous bacteria collected from the ultrasonic humidifier is adjusted to a predetermined concentration, then was added to an autoclave-sterilized normal bouillon medium (Eiken (register trade mark), manufactured by Eiken Chemical Co., Ltd.). Shaking culture for 24 hours was performed in a shaking incubator at 30° C. and 120 rpm. The solution when the number of bacteria reached about 1.5×10^9 CFU/ml was used as an inoculum solution.
Separately, the photocatalyst composition solutions obtained in the above Examples and Comparative Examples were also autoclave sterilized.
The inoculum solution was diluted with each of the photocatalyst composition solutions of the above Examples and Comparative Examples to prepare a solution having the number of bacteria of 1.5×10^7 CFU/ml, which was used as a test solution.
Two similar samples for each example and comparative example were prepared and stored under the following two conditions. The number of bacteria was measured using “Sani-Check BF” (manufactured by Biosan Laboratories, Inc.) and evaluation was performed according to the following evaluation criteria. […]

Cc1cc2nc3c(=O)[nH]c(=O)nc-3n(C[C@H](O)[C@H](O)[C@H](O)COP(=O)(O)O)c2cc1C [riboflavin sodium phosphate]
bactericidal effect as worded in the text: a certain degree of bactericidal effect
